Assays:
BTK [1] = target: T1, BTK (Homo sapiens, UniProt Q06187); assay: Binding of biotin probes to recombinant BTK, Western blot with Streptavadin-HRP; details: PBS, lysis buffer 1 or lysis buffer 2
Method: For the biotin probes (such as Formula (3) and Formula (4)), samples are run using SDS-PAGE gel, followed by transferring the protein to a polyvinylidene fluoride (PVDF) membrane by Western blotting. Subsequently, the blot is blocked overnight at 4° C. in TBS-T (10 mM TRIS pH 7.4, 100 mM NaCl, 0.1% Tween 20)+2.5% (w/v) skimmed milk powder). The blot is washed 4× with TBS-T and then incubated with Streptavadin-HRP for 1 hour at room temperature. The blot is washed again 4× with TBS-T before adding the chemiluminescent substrate, followed by measurement of the chemiluminescence signal.
SDS-PAGE procedures are known to those of ordinary skill in the art. A non-limiting example of a SDS-PAGE procedure is as follows: • 1. Add 1.1 μL of probe to 10 μL of each sample (recombinant BTK or cell lysate); final probe concentration 0.1 μM. • 2. Incubate 2 hour at room temperature. • 3. Add 4 μL sample buffer/DTT (200 μM) and incubate for 5 minutes at 95° C. • 4. Vortex and keep on ice until loading on gel. • 5. […] For the samples on gel with the fluorescent probe, the gels are measured directly using an imager suitable for measuring the fluorescent label on the probes (e.g., E tan Imager; GE Healthcare (Cy2: 480/30 excitation, 530/40 emission, Cy3: 544 excitation, 570 emission). • 9. For the biotin labeled probes, the gel is blotted to a PVDF membrane, using the Western blot procedure below. […]
Target sequence in this assay (Q06187 whole entry, species assumed): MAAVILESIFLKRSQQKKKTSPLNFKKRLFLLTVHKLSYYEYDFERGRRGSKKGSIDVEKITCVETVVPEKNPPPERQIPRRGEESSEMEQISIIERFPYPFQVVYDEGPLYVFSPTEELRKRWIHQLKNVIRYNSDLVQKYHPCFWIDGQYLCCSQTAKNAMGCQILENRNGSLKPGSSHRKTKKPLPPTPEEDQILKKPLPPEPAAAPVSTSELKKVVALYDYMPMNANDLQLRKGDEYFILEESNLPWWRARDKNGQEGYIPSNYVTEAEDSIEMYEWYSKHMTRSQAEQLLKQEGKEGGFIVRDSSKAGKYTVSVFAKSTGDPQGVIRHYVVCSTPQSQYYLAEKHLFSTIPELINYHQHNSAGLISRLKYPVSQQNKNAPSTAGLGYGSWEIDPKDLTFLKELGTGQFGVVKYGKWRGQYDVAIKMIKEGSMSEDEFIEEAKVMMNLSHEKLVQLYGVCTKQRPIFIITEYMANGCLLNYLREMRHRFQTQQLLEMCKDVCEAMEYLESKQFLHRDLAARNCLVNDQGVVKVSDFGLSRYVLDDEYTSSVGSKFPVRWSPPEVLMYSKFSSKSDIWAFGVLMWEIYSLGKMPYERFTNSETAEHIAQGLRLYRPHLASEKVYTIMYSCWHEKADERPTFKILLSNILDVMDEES

BTK [2] = target: T1, BTK; assay: BTK IMAP (immobilized metal ion affinity-based fluorescence polarization) assay; assay type: biochemical; set-up: endogenous in cells; host or cells: Ramos B cells (Ramos.2G6.4C10); details: 5 μM ATP, 60 min pre-incubation, read-out: IC50 for BTK inhibition
Method: In summary, BTK enzyme activity is measured using the IMAP (immobilized metal ion affinity-based fluorescence polarization) assay as outlined below. […] After 60 minutes of incubation at room temperature in the dark, the FP signal is read. Fluorescence at 535 nm is measured using parallel and perpendicular filters to determine differences in rotation due to binding of the phosphorylated substrate peptide to the beads. Values are calculated as a percentage of the difference in readout (ΔmPi) of the controls with and without ATP.
Inhibition of the activity of the protein kinase BTK can be measured with the assay described in this protocol. […] The method is based on IMAP, which is a homogeneous fluorescence polarization (FP) assay based on affinity capture of phosphorylated peptide substrates. […]
Target sequence in this assay (Q06187 whole entry): as the sequence (Q06187 whole entry, species assumed) above

BTK [3] = target: T1, BTK; assay: Binding of BODIPY/fluorescent probes to recombinant BTK, SDS-PAGE in-gel fluorescence; details: probe 0.1 μM, 2 hours
Method: To test different BTK target occupancy probes and lysis buffers, probes were incubated with recombinant BTK protein for 2 hours and subsequently run using sodium dodecyl sulfate polyacrylamide gel electrophoresis (SDS PAGE). When using the boron-dipyrromethene (BODIPY) tagged probes (such as Formula (5) and Formula (6)), the gel is measured directly using a fluorescence imager. BTK probe (final concentration 0.1 μM) is incubated with 125 ng BTK for 2 hours at room temperature. Afterwards, sample buffer is added and run on a SDS-PAGE gel. Fluorescent probes such as Formula (5) and Formula (6) are quantified in gel using the E tan Imager from GE Healthcare, suitable for the emission and detection of fluorescent signal for BODIPY tags.
SDS-PAGE procedures are known to those of ordinary skill in the art. A non-limiting example of a SDS-PAGE procedure is as follows: • 1. Add 1.1 μL of probe to 10 μL of each sample (recombinant BTK or cell lysate); final probe concentration 0.1 μM. • 2. Incubate 2 hour at room temperature. • 3. Add 4 μL sample buffer/DTT (200 μM) and incubate for 5 minutes at 95° C. • 4. Vortex and keep on ice until loading on gel. • 5. Spin down shortly and load 15 μL on a 12 slot Novex gradient gel (4-12% Bis-Tris gel). • 6. Run in NuPage MOPS SDS running buffer. • 7. After running the samples on gel, remove the gel from the surelock holder. • 8. For the samples on gel with the fluorescent probe, the gels are measured directly using an imager suitable for measuring the fluorescent label on the probes (e.g., E tan Imager; GE Healthcare (Cy2: 480/30 excitation, 530/40 emission, Cy3: 544 excitation, 570 emission). • 9. For the biotin labeled probes, the gel is blotted to a PVDF membrane, using the Western blot procedure below.
Target sequence in this assay (Q06187 whole entry, species assumed): as above

[4] = lysis buffer 2 (1% Triton X100)

Compound	signal of biotin probe bound to BTK (Streptavadin-HRP chemiluminescence) (BTK [1])	IC50 (BTK [2])	binding to recombinant BTK (fluorescence signal in gel) (BTK [3]; PBS or lysis buffer 1)	binding to recombinant BTK (fluorescence signal in gel) (BTK [3]; [4])
Nc1nccn2c([C@@H]3CCCCN3C(=O)/C=C/CN3CCN(CCNC(=O)CCCC(=O)NCCCOCCOCCOCCCNC(=O)CCCC[C@@H]4SC[C@@H]5NC(=O)N[C@@H]54)CC3)nc(-c3ccc(C(=O)Nc4ccccn4)cc3)c12 [Formula (3), N-[3-[2-[2-[3-[5-[(3aS,4S,6aR)-2-oxo-1,3,3a,4,6,6a-hexahydrothieno[3,4-d]imidazol-4-yl]pentanoylamino]propoxy]ethoxy]ethoxy]propyl]-N′-[2-[4-[(E)-4-[(2S)-2-[8-amino-1-[4-(2-pyridylcarbamoyl)phenyl]imidazo[1,5-a]pyrazin-3-yl]-1-piperidyl]-4-oxo-but-2-enyl]piperazin-1-yl]ethyl]pentanediamide]	stronger signal	3.4 nM	–	–
COc1ccc(-c2ccc3n2[B-](F)(F)[N+]2=C(C)C(CCC(=O)NCCN4CCN(C/C=C/C(=O)N5CCC[C@H]5c5nc(-c6ccc(C(=O)Nc7ccccn7)cc6)c6c(N)nccn56)CC4)=C(C)C2=C3)cc1 [Formula (4)]	–	1.5 nM	–	–
Cc1cc(C)n2c1C=C1C=CC(CCC(=O)NCCN3CCN(C/C=C/C(=O)N4CCC[C@H]4c4nc(-c5ccc(C(=O)Nc6ccccn6)cc5)c5c(N)nccn45)CC3)=[N+]1[B-]2(F)F [Formula (5)]	–	–	clear binding	minimal
Nc1nccn2c([C@@H]3CCCN3C(=O)/C=C/CN3CCN(CCNC(=O)CCCC(=O)NCCCOCCOCCOCCCNC(=O)CCCC[C@@H]4SC[C@@H]5NC(=O)N[C@@H]54)CC3)nc(-c3ccc(C(=O)Nc4nccs4)cc3)c12 [Formula (6)]	–	–	clear binding	no detectable binding

Source: patent publication US20190376971A1, “Compositions and Methods for the Assessment of Drug Target Occupancy for Bruton's Tyrosine Kinase” (Acerta Pharma B.V., priority 2017, published 2019)
